Legend:
Format in all cases: cell-based
[1] = test system: dendritic cells induced from C57BL/6 mouse bone marrow cells with Flt-3L (mDCs, CD11c+CD11b+); assay: Regulatory DC-inducing activity of 14-dehydroergosterol (Example 9)
Protocol: Regulatory DC induction activity was evaluated for 14-dehydroergosterol (14-DHE) isolated and purified from wheat bran fermented with koji as described above and subjected to structural determination. As controls, ergosterol (Wako Pure Chemical Industries, Japan) and 9(11)-dehydroergosterol (9(11)-DHE) (Sigma-Aldrich Corp.), which are ergosterol-related substances, were used. Also, as conjugated linoleic acid (CLA) that was reported in connection with the inhibition of DC activation in the past, CLA (9Z, 11E) and CLA (10E, 12Z) (both, Cayman Chemical), and linoleic acid (Wako Pure Chemical Industries, Japan) were also subjected to activity determination (J. Immunol., 175(8): 4990-8, Oct. 15, 2005). As negative controls, a sample (none) to which no compound had been administered and a sample (ctrl) to which only LPS had been administered were also subjected to activity determination.
In a manner similar to Example 2, bone marrow cells were prepared from C57BL/6 mouse thigh bone, and then dendritic cells were induced using Flt-3L. Each test substance was added simultaneously with the initiation of culture at a concentration of 1 μM, 5 μM, or 10 μM. Seven days later, LPS (from Salmonella typhosa) (Sigma-Aldrich Corp.) was added at 5 ng/mL and then 24 hours later the cells were recovered. Subsequently, the cells were stained for the following cell markers and then subjected to flow cytometry analysis. All antibodies used were produced by Becton, Dickinson and Company. CD11c^+CD11b^+ was set as a gate for mDCs and then the expression levels of CD40, CD80, CD86, I-A/I-E, and ICOS-L were measured. Also, IL-12p40 and IL-10 in culture supernatants were measured by ELISA.

[2] = test system: human DCs from peripheral blood CD14-positive cells; assay: Human regulatory DC-inducing activity of 14-DHE (Example 16); conditions: 14-DHE 1, 3 or 10 μM; ergosterol 10 μM; LPS/IFN-γ or cytokine cocktail 24 h
Protocol: Mononuclear cells were prepared from human peripheral blood by density-gradient centrifugation using Ficoll-Paque (GE Healthcare, Japan). These cells were subjected to positive selection using anti-human CD14 MACS beads (Miltenyi Biotec), so that CD14-positive cells were obtained. CD14-positive cells were cultured in RPMI1640 media (containing 10% FBS (Invitrogen), 50 μmol/L 2-mercaptoethanol (Wako Pure Chemical Industries, Japan), 50 U/mL penicillin, and 50 μg/mL streptomycin (Gibco) (Sigma Aldrich)) supplemented with recombinant human GM-CSF (800 U/mL, Leukine, Berlex) and recombinant human IL-4 (100 ng/mL, Peprotech). During culture, medium exchange was performed once every 2 days. On day 7 of culture, 14-DHE was added at a concentration of 1 μM, 3 μM, or 10 μM. To a control, 10 μM ergosterol, which was a related substance, was added. Also, to a negative control, 1% ethanol, which was a solvent for 14-DHE, was added. The cells were recovered on day 8 of culture, counted, and then suspended at a density of 3×10^5 cells/mL in the above media. To cell suspensions, 1 μg/mL LPS and 100 ng/mL IFN-γ (both, Sigma Aldrich), or cytokine cocktail (1 μg/mL PGE2 (Sigma Aldrich), 10 ng/mL TNF-α, 2 μg/mL IL-6, and 10 ng/mL IL-1β (3 (all, BD Bioscience)) were added, followed by 24-hour culture. After culture, the cells were stained for CD86, HLA-DR, and CD80. Antibodies used were all produced by BD Bioscience. The gate of DCs was set by FSC and SSC, and the expression levels of these cell surface markers were analyzed.

[3] = test system: DCs induced from C57BL/6 mouse bone marrow cells with Flt-3L; assay: Comparison with known regulatory DC-inducing agents, DC induction system using Flt-3L (Example 3); conditions: Flt-3L system, extract and γ-oryzanol 50 μg/mL, LPS 1 ng/mL
Protocol: (§1) The hexane fraction (No. 8) (in Table 1) prepared in Example 1 from wheat bran fermented with koji was used for the test. Since GM-CSF is used as a DC-inducing agent in the above-mentioned reports concerning rapamycin and IL-10/TGF-β, DCs were induced in each system of GM-CSF and Flt-3L and then each regulatory DC-inducing agent was evaluated.
In a manner similar to the experimental method in Example 2, bone marrow cells were prepared from C57BL/6 mouse thigh bone, the cells were suspended at 1×10^6 cells/mL in a medium, and then Flt-3L was added at 100 ng/mL. An extract from wheat bran fermented with koji, γ-oryzanol (Wako Pure Chemical Industries, Japan), or IL-10/TGF-β (produced by R&D systems and Peprotech, respectively) were added at 50 μg/mL for the former two or at 20 ng/mL for the latter two on day 0 after the initiation of culture. Rapamycin (Wako Pure Chemical Industries, Japan) was added at 10 ng/mL on day 3 after the initiation of culture. Culture was performed for 7 days and, at the time point of the last 24 hours of culture, LPS was added in a final concentration of 1 ng/mL.
Regarding an evaluation method, expression intensities of the cell-surface DC activation markers CD40, CD86 and MHCII and the suppression marker PD1L were evaluated by analysis using a flow cytometer. A gate was set on mDCs similarly to Example 1 and then analysis was conducted. Staining was performed using anti-CD11c-APC, anti-CD11b-APC-Cy7, anti-B220-PerCP, anti-CD40-FITC and anti-CD86-PE, or anti-CD11c-APC, anti-CD11b-APC-Cy7, anti-B220-PerCP, anti-MHCII-FITC, and anti-PD1L-PE (all available from Becton, Dickinson and Company) and then analysis was conducted.

[4] = test system: DCs induced from C57BL/6 mouse bone marrow cells with GM-CSF; assay: Comparison with known regulatory DC-inducing agents, DC induction system using GM-CSF (Example 3); conditions: 50 μg/mL
Protocol: as §1
In a manner similar to the experimental method in […], bone marrow cells were prepared from C57BL/6 mouse thigh bone, the cells were suspended at a concentration of 2×10^5 cells/mL in a medium, and then 20 ng/ml GM-CSF (R&D systems) was added. The concentration and timing of the added test substance were similar to those in the above examples.
Regarding an evaluation method, expression intensities of the cell-surface DC activation markers CD40, CD86 and MHCII and the suppression marker PD1L were evaluated by analysis using a flow cytometer. In the case of the DC induction using GM-CSF, only mDC was generated. As in the case of Flt-3L, a gate was set on mDCs defined by CD11c^+CD11b^+B220^− and then analysis was conducted.

Which results are given for CC(C)[C@@H](C)C=C[C@@H](C)[C@H]1CC[C@H]2C3=CC=C4C[C@@H](O)CC[C@]4(C)C3=CC[C@]12C [9(11)-DHE, 9(11)-dehydroergosterol, reference compound]?
expression of inflammatory cytokine IL-12p40 (ELISA) ([1]; 1, 5 or 10 μM, LPS 5 ng/mL, culture supernatant): a slight decrease was observed; expression levels of I-A/I-E, CD40, CD80 and CD86 ([1]; maximum concentration (10 μM), LPS 5 ng/mL 24 h): slight decrease

How did the “expression level of CD80 on human DCs” value [2] turn out when CC(C)[C@@H](C)/C=C/[C@@H](C)[C@H]1CC[C@H]2C3=CC=C4C[C@@H](O)CC[C@]4(C)[C@H]3CC[C@]12C [Ergosterol, ergosterol, reference compound] was run?
Its value is “did not affect”.

What about the “expression level of CD86 on human DCs” value [2] of the same compound?
Its value is “did not affect”.

And the “expression level of MHC class II molecule HLA-DR on human DCs” value [2]?
Its value is “did not affect”.

For γ-oryzanol, which “MHCII expression in response to LPS stimulation” value [3] is on record?
The value was “no fluctuation was observed”.

What about the “CD40 expression in response to LPS stimulation” value ([3]; rapamycin 10 ng/mL from day 3) of the same compound?
The value was “no fluctuation was observed”.

What about the “CD86 expression in response to LPS stimulation” value ([3]; rapamycin 10 ng/mL from day 3) of the same compound?
The value was “no fluctuation was observed”.

And the “expression of DC activation markers in response to LPS stimulation” value [4]?
The value was “strong increases were observed”.
